Legend:
TRKC = TRKC (Homo sapiens (Human), UniProt Q16288); assay: Reaction Biology HotSpot kinase assay; assay type: biochemical; conditions: 500 nM compound, 100 μM radiolabeled ATP
Description: (§1) The Reaction Biology Corporation (www.reactionbiology.com, Malvern, PA) HotSpot assay platform was used to measure kinase/inhibitor interactions exactly as previously described. Kinase and substrate were mixed in a buffer containing 20 mM HEPES pH 7.5, 10 mM MgCl2, 1 mM EGTA, 0.02% Brij35, 0.02 mg/mL BSA, 0.1 mM Na3VO4, 2 mM DTT and 1% DMSO. Single-dose of compounds (500 nM) were then added to each reaction mixture. After 20-minute incubation. ATP (Sigma) and [γ-^33P] ATP (Perkin Elmer) were added at a final total concentration of 100 μM for addition 2 hours at room temperature, followed by spotting onto P81 ion exchange cellulose chromatography paper (Whatman, Inc.). […] Percent remaining kinase activity of a vehicle (DMSO) containing kinase reaction was calculated for each kinase/inhibitor pair using Prism 5 (GraphPad).
as §1, with “1” for “DTT”, “incubation,” for “incubation.”

c-kit = c-kit (Homo sapiens (Human), UniProt P10721); assay: Reaction Biology HotSpot kinase assay; assay type: biochemical; conditions: 500 nM compound, 100 μM radiolabeled ATP
Chain of c-kit (P10721 26-976): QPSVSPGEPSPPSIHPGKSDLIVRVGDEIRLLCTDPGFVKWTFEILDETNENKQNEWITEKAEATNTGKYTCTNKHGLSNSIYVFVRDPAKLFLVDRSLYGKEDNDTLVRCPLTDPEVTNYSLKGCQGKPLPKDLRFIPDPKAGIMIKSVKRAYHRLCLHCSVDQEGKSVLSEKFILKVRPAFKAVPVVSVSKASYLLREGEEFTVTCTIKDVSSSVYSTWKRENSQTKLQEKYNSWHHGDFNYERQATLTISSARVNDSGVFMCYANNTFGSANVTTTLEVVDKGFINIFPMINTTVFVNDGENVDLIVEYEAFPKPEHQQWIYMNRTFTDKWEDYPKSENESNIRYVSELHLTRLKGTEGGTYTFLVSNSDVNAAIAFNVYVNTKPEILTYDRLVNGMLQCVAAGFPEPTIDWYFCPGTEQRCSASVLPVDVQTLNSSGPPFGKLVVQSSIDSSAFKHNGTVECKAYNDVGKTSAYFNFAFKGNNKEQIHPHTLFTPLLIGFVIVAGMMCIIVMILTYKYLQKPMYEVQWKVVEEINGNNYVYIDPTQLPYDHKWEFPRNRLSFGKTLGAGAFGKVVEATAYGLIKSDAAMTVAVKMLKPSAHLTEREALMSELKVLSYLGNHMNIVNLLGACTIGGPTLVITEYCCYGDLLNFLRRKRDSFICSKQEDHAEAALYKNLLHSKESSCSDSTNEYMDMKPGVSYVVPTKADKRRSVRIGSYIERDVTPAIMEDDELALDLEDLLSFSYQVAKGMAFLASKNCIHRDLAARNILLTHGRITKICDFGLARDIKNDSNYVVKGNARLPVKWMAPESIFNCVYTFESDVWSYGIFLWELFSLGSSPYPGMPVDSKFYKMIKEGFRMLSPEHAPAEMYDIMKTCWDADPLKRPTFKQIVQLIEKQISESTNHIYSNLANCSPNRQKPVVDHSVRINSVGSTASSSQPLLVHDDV
Description: as §1
as §1, with “1” for “DTT”, “incubation,” for “incubation.”

MV4-11 [1] = assay: Anti-proliferative effects in leukemia panel; assay type: cell-based; conditions: for IC50: Homo sapiens, MV4-11
Description: Molm-14 cells were the kind gift of Dr. Mark Levis from Johns Hopkins University. […] Cell lines were grown and maintained according to ATCC recommendations.
(§2) Cell lines were seeded into 96-well plates the afternoon prior to treatment. Approximately 18 hours later, compounds were semi-serially diluted in dimethyl sulfoxide (DMSO) and then growth medium, and added to cells. Plates were incubated for 72 hours prior to addition of Alamar Blue (Life Technologies. Carlsbad, CA). Plates were read after 4 additional hours of incubation at 37° C. using a Bio-Tek Synergy HT plate reader (Bio-Tek, Winooski. VT). Data was analyzed and graphed using GraphPad Prism Software (Graphpad. La Jolla, CA).

MOLM14 = assay: Anti-proliferative effects in leukemia panel; assay type: cell-based; conditions: for IC50: Homo sapiens, MOLM-14
Description: Molm-14 cells were the kind gift of Dr. Mark Levis from Johns Hopkins University. THP-1, MV4-11, K-562 and MRC-5A cells were purchased from ATCC (ATCC, Manassas, VA). All cell lines were grown in 37° C. with 5% CO2 atmosphere with RPMI 1640 (Life technologies, Carlsbad. CA) supplemented with heat-inactivated 10% (V/V) fetal bovine serum. Cell lines were grown and maintained according to ATCC recommendations.
as §2

MV4-11 [2] = assay: IC50 proliferation assay (Alamar Blue, 72 h); assay type: cell-based; conditions: Homo sapiens, MV4-11, 72 h; read-out: IC50 (proliferation inhibition) Cell line - MV4-11
Description: as §2, with “IC50 proliferation assay—Cell” for “Cell”, “lines and primary cells” for “lines”, “Technologies,” for “Technologies.”, “Winooski,” for “Winooski.”, “(Graphpad,” for “(Graphpad.”, “Jolla.” for “Jolla,”
IC50 (proliferation inhibition) against leukemia cell lines MV4-11 and K562. […] MiaPaca-2 (Pancreatic cell line), HLY-1 (Lymphoma cell line), MV4-11 (AML, cell line) and K562 (CML cell line).

MV4-11 [3] = assay: Activity against AML cell line MV4-11 (CellTiter-Blue, 72 h); assay type: cell-based
Description: Cells were added to 96 well plates at 2000 cells per well for adherent lines and 4000 cells per well for suspension lines and kept in an incubator overnight. The following day the plates were treated with compounds to give rise to the final concentrations of; 100 μM, 10 μM, 5 μM 1 μM, 500 nM, 100 nM, 10 nM, […]. The plates were then stored in the incubator for 72 hours. On the third day the cells were assayed with 20 μL of CellTiter—Blue Cell Viability Assay per well and were incubated for 4 hours. After 4 hours' fluorescence intensity was taken on a plate reader: Excitation: 560/10 Emission: 590/10. IC50 analysis was performed on GraphPad Prism 7.

FLT3 = FLT3 (Homo sapiens (Human), UniProt P36888); assay: Reaction Biology HotSpot kinase assay; assay type: biochemical; conditions: 500 nM compound; read-out: % inhibition of FLT3 activity
Chain of FLT3 (P36888 27-993): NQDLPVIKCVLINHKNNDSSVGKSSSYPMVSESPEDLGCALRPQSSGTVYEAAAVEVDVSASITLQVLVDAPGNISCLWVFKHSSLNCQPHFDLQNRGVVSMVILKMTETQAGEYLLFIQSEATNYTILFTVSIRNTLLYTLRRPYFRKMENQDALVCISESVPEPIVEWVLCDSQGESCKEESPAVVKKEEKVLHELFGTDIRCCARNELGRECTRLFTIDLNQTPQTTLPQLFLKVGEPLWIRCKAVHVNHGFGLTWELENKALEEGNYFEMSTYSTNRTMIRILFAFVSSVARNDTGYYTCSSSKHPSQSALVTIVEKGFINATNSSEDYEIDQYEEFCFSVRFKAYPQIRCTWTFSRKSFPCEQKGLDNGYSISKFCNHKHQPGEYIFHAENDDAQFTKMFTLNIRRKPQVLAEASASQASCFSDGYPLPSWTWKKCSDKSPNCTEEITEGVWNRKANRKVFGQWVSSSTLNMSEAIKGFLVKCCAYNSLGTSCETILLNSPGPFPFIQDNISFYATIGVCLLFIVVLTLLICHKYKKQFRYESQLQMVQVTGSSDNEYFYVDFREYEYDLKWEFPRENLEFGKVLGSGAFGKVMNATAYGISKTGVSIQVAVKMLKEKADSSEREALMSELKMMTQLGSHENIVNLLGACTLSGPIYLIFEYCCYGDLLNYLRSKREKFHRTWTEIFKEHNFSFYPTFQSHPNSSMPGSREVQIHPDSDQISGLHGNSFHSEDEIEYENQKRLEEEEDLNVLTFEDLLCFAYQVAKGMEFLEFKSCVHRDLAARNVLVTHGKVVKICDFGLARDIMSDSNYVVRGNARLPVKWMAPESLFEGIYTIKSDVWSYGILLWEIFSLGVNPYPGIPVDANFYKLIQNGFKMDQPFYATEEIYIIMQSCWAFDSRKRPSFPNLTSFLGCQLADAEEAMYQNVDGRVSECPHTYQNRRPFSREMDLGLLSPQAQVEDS
Description: as §1
as §1, with “1” for “DTT”, “incubation,” for “incubation.”

MV-4-11 = assay: Proliferation inhibition at single concentration (CellTiter-Blue); assay type: cell-based; conditions: 1 μM compound
HCT116 = assay: as above; assay type: cell-based; conditions: 1 μM compound
HeLa = assay: as above; assay type: cell-based; conditions: 1 μM compound
Description: (§3) Plates were then treated with compound diluted in dimethyl sulfoxide (DMSO) as well as a DMSO control the following day for 72 hours. After this time the plates were then treated with 10 μL of CellTiter-Blue Cell Viability Assay (Promega, Madison, WI) for 4 hours. Then the plates were read on a plate reader (Bio-Tek, Winooski, VT). Data was analyzed on Excel as a percent of the DMSO vehicle.
(§4) Antiproliferative activities against AML cell line, MV4-11 (a FLT3-driven cell line) and three other solid tumors (MCF7, breast, HCT116, colon and HeLa) have been investigated (Tables 6A and 6B and FIG. 10).

MCF-7 = assay: as above; assay type: cell-based; conditions: 1 μM compound
Description: as §3, §4

[4] = read-out: Anti-proliferative effects in leukemia panel (μM) MV4-11
[5] = Homo sapiens, MV4-11, 72 h, read-out: IC50 against MV4-11/uM
[6] = 72 h, read-out: IC50 against MV4-11/uM
[7] = Table 2, read-out: IC50 (nM) against MV4-11 (AML cell line)

Chain of TRKC (Q16288 32-839): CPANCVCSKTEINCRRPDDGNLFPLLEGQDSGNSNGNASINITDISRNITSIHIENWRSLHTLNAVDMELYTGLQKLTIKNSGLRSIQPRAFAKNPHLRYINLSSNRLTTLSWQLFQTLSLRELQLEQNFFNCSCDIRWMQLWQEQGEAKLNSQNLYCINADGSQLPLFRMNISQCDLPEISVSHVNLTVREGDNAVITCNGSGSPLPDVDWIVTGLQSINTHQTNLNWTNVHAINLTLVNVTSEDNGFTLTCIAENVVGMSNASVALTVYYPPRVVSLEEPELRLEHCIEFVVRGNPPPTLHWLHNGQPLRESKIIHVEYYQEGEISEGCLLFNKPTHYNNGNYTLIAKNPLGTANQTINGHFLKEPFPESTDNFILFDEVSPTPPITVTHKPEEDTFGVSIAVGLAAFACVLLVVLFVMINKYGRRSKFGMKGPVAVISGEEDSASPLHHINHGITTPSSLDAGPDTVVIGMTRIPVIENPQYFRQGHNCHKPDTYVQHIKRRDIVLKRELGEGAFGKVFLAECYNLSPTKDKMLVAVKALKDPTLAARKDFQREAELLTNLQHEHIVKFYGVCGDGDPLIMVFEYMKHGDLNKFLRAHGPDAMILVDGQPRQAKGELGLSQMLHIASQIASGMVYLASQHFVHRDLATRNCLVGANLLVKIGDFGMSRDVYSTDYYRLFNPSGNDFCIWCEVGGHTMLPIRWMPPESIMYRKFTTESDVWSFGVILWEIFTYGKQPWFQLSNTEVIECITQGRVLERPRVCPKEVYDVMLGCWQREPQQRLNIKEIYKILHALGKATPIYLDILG

Compound | IC50 (MV4-11 [3]; [6]) | inhibition at 0.5 µM (TRKC) | inhibition at 0.5 µM (c-kit) | IC50 (MV4-11 [1]; [4]) | IC50 (MOLM14) | Percent inhibition of proliferation MV-4-11 (MV-4-11) | Percent inhibition of proliferation HCT116 (HCT116) | Percent inhibition of proliferation HeLa (HeLa) | Percent inhibition of proliferation MCF-7 (MCF-7) | other results
C(#Cc1cncc2ccccc12)c1ccc(C2=NCCN2)cc1 [HSM1813] |  | 17% | 39% | > 5 µM | > 5 µM |  |  |  |  | anti-proliferative activity in words, MV4-11 / AML cell lines (MV4-11 [1]): not a potent inhibitor
CC(C)(C)c1cc(NC(=O)Nc2ccc(-c3cn4c(n3)sc3cc(OCCN5CCOCC5)ccc34)cc2)no1 [Quizartinib, quizartinib, reference compound] |  |  |  | 0.001 ± 0.001 µM | 0.001 ± 0.001 µM |  |  |  |  | 
Nc1ncc(C#Cc2ccc(C3=NCCN3)cc2)c2ccccc12 [HSM1795, 4-((4-(4,5-dihydro-1H-imidazol-2-yl)phenyl)ethynyl)isoquinolin-1-amine] |  |  |  |  |  |  |  |  |  | IC50 (MV4-11 [2]): 100 nM
Nc1nnc2ccccc2c1C#Cc1ccc(C2=NCCN2)cc1 [HSM1796] |  | 7% | 3% | > 5 µM | > 5 µM |  |  |  |  | anti-proliferative activity in words, MV4-11 / AML cell lines (MV4-11 [1]): ineffective
Nc1ncc2ccc(Cl)cc2c1C#Cc1ccc(C2=NCCN2CCN2CCCCC2)cc1 [HSM1721] |  | 52% | 80% | 0.08 ± 0.02 µM | 0.3 µM |  |  |  |  | IC50 (MV4-11 [3]; [5]): 0.015 µM
(E)-4-(2-(3-amino-6-chloroisoquinolin-4-yl)vinyl)-N-hydroxybenzimidamide [HSM1859] |  |  |  |  |  |  |  |  |  | % inhibition of TrkC (TRKC): 42%; % inhibition of c-Kit (c-kit): 62%
CC1(COc2ccc3c(c2)ncn3-c2ccc3cccc(N4CCC(N)CC4)c3n2)COC1 [Crenolanib, reference compound] |  |  |  | 0.005 ± 0.001 µM | 0.004 µM |  |  |  |  | inhibition at 0.5 µM (FLT3): 99%; IC50 (MV4-11 [1]; read-out: anti-proliferative IC50): 0.005 µM
N#Cc1ccc(C#Cc2c(N)ncc3ccc(Cl)cc23)cc1 [HSM1611, 4-((3-amino-6-chloroisoquinolin-4-yl)ethynyl)benzonitrile] |  | 16% | 63% | > 5 µM | > 5 µM |  |  |  |  | IC50 (MV4-11 [3]; [5]): 0.84 µM; anti-proliferative activity in words, MV4-11 / AML cell lines (MV4-11 [1]): ineffective; anti-proliferative activity in words, MOLM-14 (MOLM14): ineffective
N=C(NO)c1cccc(C#Cc2c(N)ncc3ccc(Cl)cc23)c1 [HSM1819] |  | 80% | 82% | 0.02 ± 0.01 µM | 0.06 µM |  |  |  |  | anti-proliferative activity in words, MV4-11 / AML cell lines (MV4-11 [1]): very potent
Nc1ncc2ccc(Cl)cc2c1C#Cc1ccc(C2=NC(C3CC3)CN2)cc1 (stereo not drawn) [HSM1703] |  | 49% | 60% | 0.3 ± 0.2 µM | 0.1 µM |  |  |  |  | 
N=C(NO)c1ccc(C#Cc2c(N)ncc3ccc(Cl)cc23)cc1 [HSM1820] |  | 74% | 86% | 0.04 ± 0.01 µM | 0.05 µM |  |  |  |  | 
Nc1ncc2[nH]ccc2c1C#Cc1ccc(C2=NCCN2)cc1 [HSM1781] |  |  |  | > 5 µM | > 5 µM |  |  |  |  | anti-proliferative activity in words, MV4-11 / AML cell lines (MV4-11 [1]): ineffective
Nc1ncc2ccc(Cl)cc2c1C#Cc1ccc(C(=O)N2CCC(N3CCCCC3)CC2)cc1 [HSN135] | 0.033 µM |  |  |  |  | 100% | 21% | 0% | 35% | 
Nc1ccc(CCNC(=O)c2ccc(C#Cc3c(N)ncc4ccc(Cl)cc34)cc2)cc1 [HSN136] | 0.095 µM |  |  |  |  | 86% | 38% | 0% | 33% | 
Nc1nccc(Cl)c1C#Cc1ccc(C2=NCCN2)cc1 [HSM1798] |  | 11% | 15% | > 5 µM | > 5 µM |  |  |  |  | anti-proliferative activity in words, MV4-11 / AML cell lines (MV4-11 [1]): ineffective
CC1(C)CNC(c2ccc(C#Cc3c(N)ncc4ccc(Cl)cc34)cc2)=N1 [HSM1743] |  | 44% | 78% | 0.07 ± 0.02 µM | 0.3 µM |  |  |  |  | 

Continued, in another order:

IC50 (MV4-11 [3]; [6]) | Compound | inhibition at 0.5 µM (TRKC) | inhibition at 0.5 µM (c-kit) | IC50 (MV4-11 [1]; [4]) | IC50 (MOLM14) | Percent inhibition of proliferation MV-4-11 (MV-4-11) | Percent inhibition of proliferation HCT116 (HCT116) | Percent inhibition of proliferation HeLa (HeLa) | Percent inhibition of proliferation MCF-7 (MCF-7) | other results
0.006 µM | Nc1ncc2ccc(Cl)cc2c1C#Cc1ccc(C(=O)NCCN2CCCCC2)cc1 [HSN137] |  |  |  |  | 99% | 60% | 20% | 74% | 
0.061 µM | CN(CCCN1CCCCC1)C(=O)c1ccc(C#Cc2c(N)ncc3ccc(Cl)cc23)cc1 [HSN105] |  |  |  |  | 88% | 40% | 1% | 12% | 
0.003 µM | Nc1ncc2ccc(Cl)cc2c1C#Cc1ccc(C(=O)NCCCN2CCCCC2)cc1 [HSM1683] |  |  |  |  | 95% | 10% | 49% | 57% | IC50 (MV4-11 [3]; [7]): 0.0421 ± 0.0013 µM
0.011 µM | Nc1ncc2ccc(Cl)cc2c1C#Cc1ccc(C(=O)NCCCN2CCCC2)cc1 [HSM1673] |  |  |  |  | 98% | 28% | 38% | 56% | IC50 (MV4-11 [3]; [7]): 0.025 ± 0.0014 µM
0.11 µM | CN1CCN(CCCNC(=O)c2ccc(C#Cc3c(N)ncc4ccc(Cl)cc34)cc2)CC1 [HSM1674] |  |  |  |  | 93% | 14% | 8% | 36% | 
0.25 µM | CN(C)CCCNC(=O)c1cccc(C#Cc2c(N)ncc3ccc(Cl)cc23)c1 [HSM1688] |  |  |  |  | 74% | 43% | 64% | 33% | IC50 (MV4-11 [3]; FIG. 1, read-out: anticancer activities (IC50) against MV4-11): 0.25 µM

Source: patent US20250084039A1, “4-SUBSTITUTED AMINOISOQUINOLINE DERIVATIVES” (Purdue Research Foundation, priority 2016, published 2025)
